{"source": "patent US20070197452A1", "about": "“Treatment of amyloid-related diseases” (priority 2006, published 2007)", "key": {"[1]": {"tested_on": "TgCRND8 mice", "assay": "Morris water maze spatial reference memory test", "format": "in vivo, mouse", "details": "for spatial learning performance compared with non-Tg littermates / spatial learning performance compared with untreated TgCRND8 littermates: 28 days of treatment from 5 months of age, tested at 6 months; for cognitive performance compared with non-Tg mice / cognitive performance compared with untreated TgCRND8 mice / cognitive performance compared with non-Tg littermates: prophylactic", "method": "Behavioural tests: Morris Water Maze testing was performed as previously described. After non-spatial pre-training, mice underwent place discrimination training for 5 days with 4-trials per day, followed by a cued visible platform to rule out general motivational, learning deficits and motor problems, and a probe trial to evaluate memory. […] Open field test for motor activity was preformed as described previously. Duration of walking, pausing and grooming were analyzed as indices of spontaneous locomotor activity. Sensorimotor function was examined with an EconomexTM accelerating rotarod (Columbus Instruments, Columbus, Ohio), as described elsewhere. The rod was set to accelerate at a rate of 0.2 r.p.m./s, from an initial, constant speed of 5 r.p.m. Latency to fall was recorded in four daily trials, conducted at 30 min intervals. All mice were trained for seven days before testing. The test day performance score for each animal was obtained by summing its latency to fall over the four trials Behavioral tests. Morris water maze testing was carried out as previously described. After nonspatial pretraining, mice underwent place discrimination training for 5 d with four trials per day, followed by a cued visible platform trial and a probe trial. An open-field test for motor activity was carried out as described previously. Sensorimotor function was assessed with an Economex accelerating rotarod (Columbus Instruments) as previously described. Behavioural tests. Morris Water Maze testing was performed as previously described. After non-spatial pre-training, mice underwent place discrimination training for 5 days with 4-trials per day, followed by a cued visible platform to rule out general motivational, learning deficits and motor problems, and a probe trial to evaluate memory. The probe trial was conducted at 72 h after the last testing, and used an annulus-crossing index to assess spatial recall. The annulus-crossing index measures the number of passes over the original platform position relative to passes over the other three quadrants. […] Open field test for motor activity was performed as described previously"}, "[2]": {"tested_on": "TgCRND8 mice", "assay": "Vascular amyloid (Aβ) burden", "format": "in vivo, mouse", "details": "prophylactic treatment, vs untreated", "method": "Cerebral amyloid burden. Brains were removed and one hemisphere was fixed in 4% paraformaldehyde and embedded in paraffin wax in the mid sagittal plane. To generate sets of systematic uniform random sections, 5 μm serial sections were collected across the entire hemisphere. Sets of sections at 50 μm intervals were used for analyses (10-14 sections/set). Plaques were identified after antigen retrieval with formic acid, and incubation with primary anti-Aβ antibody (Dako M-0872), followed by secondary antibody (Dako StreptABCcomplex/horseradish kit). End products were visualized with DAB and were counter-stained with luxol fast blue. Amyloid plaque burden was assessed with Leco IA-3001 image analysis software interfaced with Leica microscope and Hitachi KP-M1U CCD video camera. Openlab imaging software (Improvision, Lexington, Mass.) was then used to convert micrographs to binary images for plaque number and plaque area determinations. Vascular amyloid burden was defined as amyloid originating from or surrounding blood vessels and was analysed similarly.\nCerebral Aβ burden. Brains were removed and fixed one hemisphere from each in 4% paraformaldehyde and embedded in paraffin wax in the midsagittal plane. Sets of sections at […] intervals for analyses (10-14 sections per set) were used. Plaques with primary Aβ-specific antibody (Dako M-0872) were identified and visualized with DAB. AP plaque burden was assessed with Openlab imaging software (Improvision) and used to convert micrographs to binary images for determinations of plaque number and plaque area. Vascular Aβ burden was defined as Aβ plaques originating from or surrounding blood vessels and was analyzed similarly.\nCerebral Aβ burden. Brains were removed and one hemisphere was fixed in 4% paraformaldehyde and embedded in paraffin wax in the mid sagittal plane. […] Aβ plaque burden was assessed with Leco IA-3001 image analysis software interfaced with Leica microscope and Hitachi KP-M1U CCD video camera. […] Vascular Aβ burden was defined as Aβ plaques originating from or surrounding blood vessels and was analyzed similarly."}, "[3]": {"molecular_target": "T1, Aβ42 (Homo sapiens, UniProt P05067)", "T1 construct": "analyzed for Aβ40 and Aβ42 using commercially available kits; from tissue; host or cells: hemi-brain homogenates and plasma of TgCRND8 transgenic mice", "T1 sequence (P05067 672-713 limits assumed)": "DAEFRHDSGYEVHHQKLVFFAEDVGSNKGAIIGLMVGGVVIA", "assay": "Cerebral Aβ42 content of hemi-brain homogenates (commercial kit)", "format": "in vivo, mouse", "details": "for brain Aβ42 levels: TgCRND8 mice with pre-existing disease, 28 days from 5 months of age", "method": "Plasma and Cerebral Aβ Content. Hemi-brain samples were homogenized in a buffered sucrose solution, followed by either 0.4% diethylamine/100 mM NaCl for soluble Aβ levels or cold formic acid for the isolation of total Aβ. After neutralization, the samples were diluted and analyzed for Aβ40 and Aβ42 using commercially available kits (BIOSOURCE International). Each hemisphere was analyzed in triplicate and the mean values±SEM reported. Western blot analyses were performed on all fractions using urea gels for Aβ species analyses. Aβ was detected using 6E10 (BIOSOURCE International) and Enhanced Chemiluminenscence (Amersham).\nPlasma and cerebral Aβ content. Hemi-brain samples were homogenized in a buffered sucrose solution, followed by either a mixture of 0.4% diethylamine and 100 mM NaCl for soluble Aβ levels or cold formic acid for the isolation of total Aβ. After neutralization, samples were diluted and analyzed for Aβ40 and Aβ42 using commercially available kits (Biosource International). Each hemisphere was analyzed in triplicate and the mean±s.e.m. was reported. Western blot analyses were carried out on all fractions using urea gels for Aβ species analyses. Aβ was detected using 6E10 (Biosource International)."}, "[4]": {"tested_on": "long term potentiation (LTP) in mouse hippocampal slices", "assay": "Long term potentiation in hippocampal slices with 7PA2 conditioned medium", "format": "cell-based", "method": "Long Term Potentiation. Field potentials were recorded in CA1 of mouse hippocampus by standard procedures. Swiss Webster mice between the ages of P16 and P26 were anesthetized with isoflurane. […] The hippocampus from each hemisphere was isolated and 350 μm coronal sections were made. […] Once placed in the chamber, slices were continuously perfused by a closed loop containing 15 ml of ACSF to conserve the oligomeric Aβ. […] A bipolar stimulating electrode (World Precision Inst.) was placed in the Schaffer collaterals to deliver baseline stimuli and tetani. A borosilicate glass recording electrode (2-4 MΩ) containing ACSF was positioned approximately 75-200 μm from the stimulating electrode. […] Test stimuli were delivered at 0.05 Hz. To induce LTP, 4 tetani (100 Hz for 1 second) were delivered 5 minutes apart. Field potential responses were amplified 10× using an Axopatch 200B. The data was sampled at 10 kHz and filtered at 2 kHz. Traces were analyzed using pClamp 9.2. The slope of the field potential was estimated using approximately 10-60% of the total response."}, "[5]": {"details": "listed as scyllocyclohexanehexol"}}, "note": "Entries after “also recorded” stand apart in the source; their conditions may differ.", "data": [{"smiles": "OC1C(O)C(O)C(O)C(O)C1O", "note": "(stereo not drawn) [epi-cyclohexanehexol, 1,2,3,4,5/6-(epi-) cyclohexanehexol, reference compound]", "values": [{"measurement": "spatial learning performance compared with non-Tg littermates", "setting": "[1]", "value": "significantly poorer than the performance of their non-Tg littermates; also recorded: remained impaired with respect to non-Tg littermates; also recorded: remained impaired with respect to nontransgenic littermates"}, {"measurement": "spatial learning performance compared with untreated TgCRND8 littermates", "setting": "[1]", "value": "not significantly different from that of untreated TgCRND8 littermates; also recorded: ineffective at reversing behavioral deficits"}, {"measurement": "spatial learning performance compared with non-Tg littermates", "setting": "[1]; listed as AZD-102", "value": "remained impaired with respect to non-Tg littermates"}, {"measurement": "spatial learning performance compared with untreated TgCRND8 littermates", "setting": "[1]; listed as AZD-102", "value": "not different from untreated TgCRND8 littermates"}, {"measurement": "cognitive performance compared with non-Tg mice", "setting": "[1]; 6 weeks to 4 months of age", "value": "significantly different from treated and untreated nontransgenic mice"}, {"measurement": "cognitive performance compared with untreated TgCRND8 mice", "setting": "[1]; 6 weeks to 4 months of age", "value": "significant behavioral improvement"}, {"measurement": "cognitive performance compared with non-Tg mice", "setting": "[1]; 6 weeks to 4 months of age, listed as AZD-102", "value": "significantly different from treated and untreated non-Tg mice"}, {"measurement": "cognitive performance compared with non-Tg littermates", "setting": "[1]; 6 weeks to 6 months of age", "value": "indistinguishable from nontransgenic littermates; also recorded: approached that of nontransgenic littermates"}, {"measurement": "cognitive performance compared with untreated TgCRND8 mice", "setting": "[1]; 6 weeks to 6 months of age", "value": "significantly better cognitive function compared to untreated TgCRND8 littermates"}, {"measurement": "cognitive performance compared with non-Tg littermates", "setting": "[1]; 6 weeks to 6 months of age, listed as AZD-102", "value": "approached that of non-Tg littermates"}, {"measurement": "total vascular Aβ load / vascular Aβ deposits", "setting": "[2]", "value": "no change"}, {"measurement": "brain Aβ42 levels", "setting": "[3]", "value": "no significant impact; also recorded: no significant effect"}, {"measurement": "reduction of brain Aβ42 (range given for both Aβ40 and Aβ42)", "setting": "[3]; TgCRND8 mice, prophylactic treatment, 4 months of age", "value": "22-62 % reduction"}]}, {"smiles": "OC1C(O)C(O)C(O)C(O)C1O", "note": "(centres unmarked) [scyllo-cyclohexanehexol, 1,3,5/2,4,6-(scyllo-) cyclohexanehexol]", "values": [{"measurement": "spatial learning performance compared with non-Tg littermates", "setting": "[1]", "value": "indistinguishable from that of their non-Tg littermates; also recorded: indistinguishable from nontransgenic littermates"}, {"measurement": "spatial learning performance compared with untreated TgCRND8 littermates", "setting": "[1]", "value": "significantly better behavioural performance compared to untreated TgCRND8 mice; also recorded: significantly better than untreated TgCRND8 littermates"}, {"measurement": "spatial learning performance compared with non-Tg littermates", "setting": "[1]; listed as AZD-103", "value": "indistinguishable from non-Tg littermates"}, {"measurement": "spatial learning performance compared with untreated TgCRND8 littermates", "setting": "[1]; listed as AZD-103", "value": "significantly better than untreated TgCRND8 littermates"}, {"measurement": "spatial learning performance compared with non-Tg littermates", "setting": "[1]; [5]", "value": "indistinguishable from nontransgenic littermates"}, {"measurement": "spatial learning performance compared with untreated TgCRND8 littermates", "setting": "[1]; [5]", "value": "improved behavioral performance"}, {"measurement": "effect on cognition", "setting": "[1]; TgCRND8 mice treated for 2 months, ending at 7 months of age", "value": "Sustained effects"}, {"measurement": "spatial memory, dose-response", "setting": "[1]; TgCRND8 mice, 0.3-30 mg/kg/d orally, tested at 4 months of age", "value": "dose-dependent improvement"}, {"measurement": "cognitive performance compared with non-Tg mice", "setting": "[1]; 6 weeks to 4 months of age", "value": "approached that of nontransgenic mice"}, {"measurement": "cognitive performance compared with untreated TgCRND8 mice", "setting": "[1]; 6 weeks to 4 months of age", "value": "significant behavioral improvement"}, {"measurement": "cognitive performance compared with non-Tg mice", "setting": "[1]; 6 weeks to 4 months of age, listed as AZD-103", "value": "approached that of non-Tg mice"}, {"measurement": "cognitive performance compared with non-Tg mice", "setting": "[1]; 6 weeks to 4 months of age, listed as Scyllo-cyclohexanehexol", "value": "indistinguishable from nontransgenic littermates on days 4 and 5 of testing"}, {"measurement": "cognitive performance compared with non-Tg littermates", "setting": "[1]; 6 weeks to 6 months of age", "value": "indistinguishable from nontransgenic littermates; also recorded: approached that of nontransgenic littermates"}, {"measurement": "cognitive performance compared with untreated TgCRND8 mice", "setting": "[1]; 6 weeks to 6 months of age", "value": "significantly better cognitive function compared to untreated TgCRND8 littermates"}, {"measurement": "synaptic response in the absence of a potentiating tetanus", "setting": "[4]; baseline transmission, data not shown", "value": "did not change synaptic response"}, {"measurement": "direct effect on LTP", "setting": "[4]; compound-treated medium from plain CHO cells", "value": "no direct effect on LTP"}, {"measurement": "brain area covered by cerebrovascular Aβ", "setting": "[2]", "value": "reduced brain area covered by cerebrovascular Aβ"}, {"measurement": "mean size of cerebrovascular deposits", "setting": "[2]", "value": "reduced mean size of cerebrovascular deposits"}, {"measurement": "brain Aβ42 levels", "setting": "[3]", "value": "reduced levels"}]}]}
